Each block holds one molecule with its values, some of them ahead of it.
Experiments:
Format in all cases: cell-based
[1] = tested on: Escherichia coli nfsB (NfsB) or human cytochrome P450 reductase (CYPOR); assay: Multiplexed reporter detection with compounds 11 and 13 in MDA-231 WT, NfsB and CYPOR cells (fluorescence microscopy); details: fluorescent microscope images, MDA-231 WT/NfsB/CYPOR
From the text: Compounds 11 and 13 (as representative nitro-substituted aromatic compounds of the present invention) were utilized to exemplify the ability to detect individual cell populations. […] When the data were collated it was evident that the fluorescent output of each cell population could be identified with minimal interference from the other reductases-generated fluorescent molecules. […] To establish the single cell specificity of compounds 11 and 13 for detection of activities in a mixed (co-cultured) cell population, cells were examined by fluorescent microscopy following concurrent exposure to compounds 11 and 13. MDA-231 wild-type cells or cells expressing Escherichia coli nfsB and human cytochrome P450 reductase were mixed 1:1:1, seeded onto glass coverslips (15,000 cells/well in 0.1 mL αMEM+10% FCS+P/S) and allowed to attach overnight. Compound 11 and 13 were diluted into αMEM (from DMSO stock solutions) and 0.1 mL was added to achieve a final concentration of 10 μM and 100 μM respectively. Samples were incubated at 37° C. for 45 minutes, washed three times in PBS and images were acquired on a Nikon TE-2000 inverted fluorescence microscope. […] This illustrates that multiple independent outputs can be recorded from a single sample providing appropriate excitation and emission wavelengths are utilized. […]

[2] = target: T1, E. coli nitroreductase (nfsB) (Escherichia coli, UniProt P38489); assay: Entrapment of fluorescent products within nitroreductase expressing HCT116 cells; details: washed; for cellular retention of fluorescence in nitroreductase expressing but not parental HCT116 cells: 10 μM for 1.5 hr, 6 hours post-exposure
T1 construct: expressed in transfected cells; host or cells: MDA231 (MDA-231) human breast cancer cell line, clonal derivative MDA231 NTR
Description: The human colorectal cancer cell line (HCT116^WT) and a clonal derivative (HCT116^NTR) engineered to express the reporter gene E. coli nitroreductase (nfsB) under the control of a constitutive promoter were seeded onto glass coverslips at an equal density (50:50). Cells were equilibrated to 37° C., 5% CO2, and compound 1 and 13 was added to a final concentration of 100 μM for 1 hr. Cells were washed free of compound after 1 hour and fluorescence was monitored as a function of time (FIG. 8).
In further screening (FIG. 9), the human colorectal cancer cell line (HCT116^WT) and a clonal derivative (HCT116^NTR) engineered to express the reporter gene E. coli nitroreductase (nfsB) under the control of a constitutive promoter were seeded separately into a 96-well glass plate. Cells were equilibrated to 37° C., 5% CO2, and compounds were added to a final concentration of 10 μM for 1.5 hr. Cells were washed free of compound and fluorescence was monitored 6 hours post-exposure. […] The image has been rendered monochromatic for the purposes of publication quality.

[3] = target: T2, Escherichia coli nfsB (NfsB) (Escherichia coli, UniProt P38489); assay: Multiplexed reporter detection with compounds 4 and 16 in MDA-231 cells expressing nfsB; details: nfsB and CYPOR cells mixed 1:1, 10 μM, 45 minutes, microscopy
T2 construct: expressed in transfected cells; host or cells: MDA231 (MDA-231) human breast cancer cell line, clonal derivative MDA231 NTR
Description: (§1) Compounds 4 and 16 (as representative nitro-substituted aromatic compounds of the present invention) were utilized to exemplify the ability to detect individual cell populations. […] 30,000 cells were seeded into a plastic 96-well plate in a volume of 0.1 mL. After 2 h attachment samples were incubated with either 200 μM 16 or 100 μM 4 by dilution of DMSO stock solutions into culture medium and addition of 0.1 mL directly into wells. Plates were incubated for 4 h before being read on a fluorescent platereader at Ex/Em 355/460 and 485/535. Values represent the fluorescence in the presence of cells—blank (fluorescence in the absence of cells). When the data were collated it was evident that the fluorescent output of each cell population could be identified with minimal interference from the other reductases-generated fluorescent molecules. […] To establish the single cell specificity of compounds 4 and 16 for detection of activities in a mixed (co-cultured) cell population, cells were examined by fluorescent microscopy following concurrent exposure to compounds 4 and 16. […] Samples were incubated at 37° C. for 45 minutes, washed three times in PBS and images were acquired on a Nikon TE-2000 inverted fluorescence microscope. […]

[4] = target: T3, human cytochrome P450 reductase (CYPOR) (Homo sapiens, UniProt P16435); assay: Multiplexed reporter detection with compounds 4 and 16 in MDA-231 cells expressing CYPOR
T3 construct: expressed in transfected cells; host or cells: MDA231 (MDA-231) human breast cancer cell line, clonal derivative MDA231 P450R
T3 sequence (P16435 1-677): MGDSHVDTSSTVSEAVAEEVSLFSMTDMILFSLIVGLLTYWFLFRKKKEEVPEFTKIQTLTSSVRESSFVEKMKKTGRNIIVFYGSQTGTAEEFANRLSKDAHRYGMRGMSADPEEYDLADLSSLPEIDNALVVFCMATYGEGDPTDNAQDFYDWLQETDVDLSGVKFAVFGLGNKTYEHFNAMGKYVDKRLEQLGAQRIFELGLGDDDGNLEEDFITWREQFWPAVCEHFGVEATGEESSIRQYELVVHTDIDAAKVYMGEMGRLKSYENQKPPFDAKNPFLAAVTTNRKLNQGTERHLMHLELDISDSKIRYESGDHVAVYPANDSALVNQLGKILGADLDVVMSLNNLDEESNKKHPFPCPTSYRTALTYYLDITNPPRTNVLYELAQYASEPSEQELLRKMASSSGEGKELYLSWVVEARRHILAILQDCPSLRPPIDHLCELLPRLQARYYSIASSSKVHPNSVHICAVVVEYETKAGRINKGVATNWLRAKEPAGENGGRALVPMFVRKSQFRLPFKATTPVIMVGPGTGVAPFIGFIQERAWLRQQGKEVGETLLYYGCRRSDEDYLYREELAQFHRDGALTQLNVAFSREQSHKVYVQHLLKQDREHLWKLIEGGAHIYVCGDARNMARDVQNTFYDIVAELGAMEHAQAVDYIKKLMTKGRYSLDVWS
Description: as §1

T1 sequence (P38489 whole entry): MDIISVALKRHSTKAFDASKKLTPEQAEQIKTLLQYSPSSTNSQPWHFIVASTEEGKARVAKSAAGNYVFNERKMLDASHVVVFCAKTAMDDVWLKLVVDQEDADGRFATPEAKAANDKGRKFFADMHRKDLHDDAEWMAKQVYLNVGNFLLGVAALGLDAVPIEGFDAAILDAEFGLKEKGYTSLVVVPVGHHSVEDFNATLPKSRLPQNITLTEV
T2 sequence (P38489 whole entry): as above

Structure (SMILES): CN(C)CCCCN1C(=O)c2cccc3cc([N+](=O)[O-])cc(c23)C1=O [Compound 11, 2-[4-(Dimethylamino)butyl]-5-nitro-1H-benzo[de]isoquinoline-1,3(2H)-dione]
- fluorescent output at Ex/Em 485/535 detecting nfsB and CYPOR enzyme activities [1]: gave fluorescent output

Structure (SMILES): COC(=O)Cn1ccc(=O)c2cc([N+](=O)[O-])ccc21 [Compound 13, Methyl (6-nitro-4-oxo-1(4H)-quinolinyl)acetate]
- cellular retention of fluorescence in nitroreductase expressing but not parental HCT116 cells [2]: possessing cellular retention properties
- retention of fluorescence in cells after wash ([2]; HCT116 WT:HCT116 NTR 50:50 co-culture, 100 μM for 1 hr, by 4 hours): still retained
- fluorescent output at Ex/Em 355/460 detecting nfsB and CYPOR enzyme activities [1]: gave fluorescent output

Structure (SMILES): CN(C)CCCOc1ccnc2cc([N+](=O)[O-])ccc12 [Compound 14, N,N-dimethyl-3-[(7-nitro-4-quinolinyl)oxy]-1-propanamine]
- cellular retention of fluorescence in nitroreductase expressing but not parental HCT116 cells [2]: possessing cellular retention properties
- fluorescent emission colour on co-registration image (FITC filter set) [3]: green

- fluorescent output at Ex/Em 355/460 detecting human CYPOR activity ([4]; 200 μM, 4 h, platereader, MDA-231 WT/NfsB/CYPOR): gave fluorescent output
- fluorescent emission colour on co-registration image (DAPI filter set) ([4]; nfsB and CYPOR cells mixed 1:1, 300 μM, 45 minutes, microscopy): blue
Structure (SMILES): CN(C)CCCNc1ncnc2cccc([N+](=O)[O-])c12 [Compound 16, N^1,N^1-dimethyl-N^3-(5-nitro-4-quinazolinyl)-1,3-propanediamine]

— US20100173332A1, “Method for the Fluorescent Detection of Nitroreductase Activity Using Nitro-Substituted Aromatic Compounds” (Auckland Uniservices Limited, priority 2006, published 2010)
